Laboratory results: patent US10336710B2, “Benzimidazole derivatives, preparation method therefor, and applications thereof” (BEIJING PHARMACEUTICAL GROUP CO., LTD., priority 2015, dated 2019)

Legend:
human URAT1 = human URAT1 (Homo sapiens (Human), UniProt Q96S37); experiment: 14C-uric acid uptake inhibition in URAT1 high-expression 293/hURAT1 cells; format: cell-based; details: 50 μM 14C-uric acid, 5 minutes at 37° C., read-out: URAT1 IC50 activity classification
Description: The transfected cells were assayed for ability to uptake uric acid labelled with radioisotope. The test compounds were then evaluated for their activity by determining of their ability to block uric acid uptake by the transfected cells.
293/h URAT1 cells were plated at a density of 40000 cells/well in poly D-lysine-coated 96-well plates (BD, 356461) and incubated overnight. The medium was removed and a pre-warmed reaction buffer was added (125 mM sodium gluconate, 4.8 mM potassium gluconate, 1.3 mM calcium gluconate, 1.2 mM potassium dihydrogen phosphate, 1.2 mM magnesium sulfate, 5.6 mM glucose, 25 mM HEPES, pH 7.4) before incubating at 37° C. for 10 minutes. The buffer was removed and another reaction buffer containing 50 μM ^14C-uric acid (American Radiolabeled Chemicals, ARC0513) and the test compounds or solvent control was added before incubating at 37° C. for 5 minutes. The buffer was removed, and the plates were washed 3 times with the buffer. Cells were lysed by adding 100 mM NaOH for 20 minutes. Cell lysates were transferred to Isoplate-96 well plates (PerkinElmer, 6005040), mixed with liquid scintillators and were counted in a MicroBeta^2 (PerkinElmer) counter.
The test compounds were all dissolved in DMSO, and DMSO of the same concentration without the test compounds was used as a solvent control. […] The IC50 of each compound was calculated using the percentage of inhibition at different concentrations.

hyperuricemia rat models = experiment: Therapeutic effect on potassium oxonate-induced hyperuricemia rat models (blood uric acid); format: in vivo, SD rats; details: for Blood uric acid concentration before drug administration: baseline, rat serum; for Blood uric acid concentration before drug administration / Blood uric acid concentration 7 days after drug administration: mean ± SD; for Blood uric acid concentration 7 days after drug administration: potassium oxonate 250 mg/kg/d i.p.; for Blood uric acid increase: 7 days vs before drug administration; for Effect on increment of blood uric acid levels compared with model control group (in words): 80 mg/kg/day and 40 mg/kg/day, potassium oxonate rat model
Description: Experimental animals: SD rats (SPF level), Laboratory Animal Center, Chinese Academy of Military Medical Sciences.
Rats weighing 200±20 g were fasted for 12 hours after a 1-week adaptive feeding period and were intraperitoneally injected with potassium oxonate (250 mg/kg/d) once daily for 7 consecutive days for modeling. The rats were closely observed after injection. […]
Blood samples were collected from the retro-orbital venous plexus before the preparation of the rat models and after administering the test compounds for 7 days. Serum was separated from the blood samples. Urine was collected using a metabolic cage for 24 hours and the supernatant was collected after centrifuge. Blood uric acid levels were measured using an automatic biochemical analyzer. The average increment in blood uric acid concentration was calculated for each group of animals.
SPSS 13.0 statistical software package was used to analyze the data. The data in each group were expressed as mean plus or minus standard deviation (x±s). The data were compared using a comparative t-test between groups, where p<0.05 was considered as statistically significant.

[1] = 40 mg/kg/d intragastric once daily for 7 days
[2] = 80 mg/kg/d intragastric once daily for 7 days

Chain of human URAT1 (Q96S37 whole entry): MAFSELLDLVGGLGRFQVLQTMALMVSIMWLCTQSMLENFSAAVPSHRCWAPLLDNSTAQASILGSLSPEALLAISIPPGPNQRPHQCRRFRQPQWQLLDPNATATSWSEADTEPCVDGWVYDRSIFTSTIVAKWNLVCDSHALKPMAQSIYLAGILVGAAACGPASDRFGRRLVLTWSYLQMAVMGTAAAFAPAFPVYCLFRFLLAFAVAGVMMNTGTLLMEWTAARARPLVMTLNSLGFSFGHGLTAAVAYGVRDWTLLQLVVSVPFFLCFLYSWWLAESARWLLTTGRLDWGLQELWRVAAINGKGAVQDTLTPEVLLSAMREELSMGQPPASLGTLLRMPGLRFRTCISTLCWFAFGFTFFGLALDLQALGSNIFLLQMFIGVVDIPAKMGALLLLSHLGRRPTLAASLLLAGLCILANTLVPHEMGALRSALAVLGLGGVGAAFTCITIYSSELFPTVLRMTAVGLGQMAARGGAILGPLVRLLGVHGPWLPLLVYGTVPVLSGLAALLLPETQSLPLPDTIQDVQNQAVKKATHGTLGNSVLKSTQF

| SMILES | IC50 (human URAT1) | Blood uric acid concentration before drug administration (hyperuricemia rat models; 40 mg/kg/d group) | Blood uric acid concentration 7 days after drug administration (hyperuricemia rat models; [1]) | Blood uric acid increase (hyperuricemia rat models; 40 mg/kg/d) | Blood uric acid concentration before drug administration (hyperuricemia rat models; 80 mg/kg/d group) | Blood uric acid concentration 7 days after drug administration (hyperuricemia rat models; [2]) | Blood uric acid increase (hyperuricemia rat models; 80 mg/kg/d) | Effect on increment of blood uric acid levels compared with model control group (in words) (hyperuricemia rat models) |
| --- | --- | --- | --- | --- | --- | --- | --- | --- |
| COc1ccc2c(c1)nc(SC(C)(C)C(=O)O)n2-c1ccc(C#N)c2ccccc12 [Example I1, 2-methyl-2-[[5-methoxy-1-(4-cyanonaphth-1-yl)-1H-benzo[d]imidazol-2-yl]thio]propanoic acid] | 1 to 15 µM | 169.61 ± 19.57 µmol/L | 175.79 ± 16.54 µmol/L | 3.64% | 175.83 ± 16.39 µmol/L | 175.95 ± 15.43 µmol/L | 0.07% | could significantly reduce the increment of blood uric acid levels |
| CC(C)(Sc1nc2ccccc2n1-c1ccc(C#N)c2ccccc12)C(=O)O [Example I2, 2-methyl-2-[[1-(4-cyanonaphth-1-yl)-1H-benzo[d]imidazol-2-yl]thio]propanoic acid] | 1 to 15 µM | 156.38 ± 12.62 µmol/L | 172.86 ± 9.37 µmol/L | 10.54% | 150.86 ± 20.46 µmol/L | 161.81 ± 8.38 µmol/L | 7.26% | could significantly reduce the increment of blood uric acid levels |
| CC(C)(Sc1nc2cc(Br)ccc2n1-c1ccc(C#N)c2ccccc12)C(=O)O [Example I3, 2-methyl-2-[[5-bromo-1-(4-cyanonaphth-1-yl)-1H-benzo[d]imidazol-2-yl]thio]propanoic acid] | 1 to 15 µM | 169.21 ± 14.24 µmol/L | 180.38 ± 14.36 µmol/L | 6.60% | 181.25 ± 24.86 µmol/L | 159.40 ± 13.99 µmol/L | −12.06% | could significantly reduce the increment of blood uric acid levels |
| CC(C)(Sc1nc2ccccc2n1-c1ccc(C#N)cc1)C(=O)O [Example I4, 2-methyl-2-[[1-(4-cyanophenyl)-1H-benzo[d]imidazol-2-yl]thio]propanoic acid] | 1 to 15 µM | 142.57 ± 6.43 µmol/L | 173.05 ± 17.24 µmol/L | 21.38% | 158.38 ± 13.67 µmol/L | 177.24 ± 5.77 µmol/L | 11.90% |  |
| CC(C)(Sc1nc2ccccc2n1-c1ccc(C2CC2)c2ccccc12)C(=O)O [Example I5, 2-methyl-2-[[1-(4-cyclopropylnaphth-1-yl)-1H-benzo[d]imidazol-2-yl]thio]propanoic acid] | 15 to 30 µM |  |  |  |  |  |  |  |
| O=C(O)CSc1nnc(Br)n1-c1ccc(C2CC2)c2ccccc12 [Lesinurad, reference compound] |  | 156.02 ± 8.69 µmol/L | 172.57 ± 25.43 µmol/L | 10.61% | 161.20 ± 22.07 µmol/L | 166.85 ± 12.76 µmol/L | 3.50% | could reduce the increment of blood uric acid levels |

Further lines, with some results ahead:

| IC50 (human URAT1) | SMILES | Blood uric acid concentration before drug administration (hyperuricemia rat models; 40 mg/kg/d group) | Blood uric acid concentration 7 days after drug administration (hyperuricemia rat models; [1]) | Blood uric acid increase (hyperuricemia rat models; 40 mg/kg/d) | Blood uric acid concentration before drug administration (hyperuricemia rat models; 80 mg/kg/d group) | Blood uric acid concentration 7 days after drug administration (hyperuricemia rat models; [2]) | Blood uric acid increase (hyperuricemia rat models; 80 mg/kg/d) | Effect on increment of blood uric acid levels compared with model control group (in words) (hyperuricemia rat models) |
| --- | --- | --- | --- | --- | --- | --- | --- | --- |
| 15 to 30 µM | O=C(O)C(Sc1nc2ccccc2n1-c1ccc(C2CC2)c2ccccc12)c1ccc(Cl)cc1 (stereo not drawn) [Example I6, 2-(4-chlorophenyl)-2-[[1-(4-cyclopropylnaphth-1-yl)-1H-benzo[d]imidazol-2-yl]thio]acetic acid] |  |  |  |  |  |  |  |
| 30 to 100 µM | CC(C)(Sc1nc2ccccc2n1-c1ccc([N+](=O)[O-])cc1F)C(=O)O [Example I7, 2-methyl-2-[[1-(4-nitro-2-fluorophenyl)-1H-benzo[d]imidazol-2-yl]thio]propanoic acid] |  |  |  |  |  |  |  |
| 30 to 100 µM | CC(C)(Sc1nc2ccccc2n1-c1ccccc1)C(=O)O [Example I8, 2-methyl-2-[(1-phenyl-1H-benzo[d]imidazol-2-yl)thio]propanoic acid] |  |  |  |  |  |  |  |
| 15 to 30 µM | CC(C)(Sc1nc2ccccc2n1-c1ccc(Br)cc1F)C(=O)O [Example I11, 2-methyl-2-[[1-(4-bromo-2-fluorophenyl)-1H-benzo[d]imidazol-2-yl]thio]propanoic acid] |  |  |  |  |  |  |  |
| 15 to 30 µM | CC(C)(Sc1nc2ccccc2n1-c1ccc(Cl)cc1F)C(=O)O [Example I12, 2-methyl-2-[[1-(4-chloro-2-fluorophenyl)-1H-benzo[d]imidazol-2-yl]thio]propanoic acid] |  |  |  |  |  |  |  |
| 15 to 30 µM | CC(C)(Sc1nc2ccccc2n1-c1ccccc1F)C(=O)O [Example I13, 2-methyl-2-[[1-(2-fluorophenyl)-1H-benzo[d]imidazol-2-yl]thio]propanoic acid] |  |  |  |  |  |  |  |
